Assay results as given in ChEMBL document CHEMBL1201862, “PubChem BioAssay data set” (2004).
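In this assay, cells in 96-well plates receive the compound at five concentrations for 48 hours. Endpoints are linearly interpolated between the surrounding concentrations. GI50 = concentration required for 50% inhibition of growth.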 Activity calls are given as the source filed them. Rule as the data show it: active = GI50 up to about 1.1 µM and inactive = higher.

Legend:
Assay in all cases: DTP human tumour cell line panel, 48 h
786-0 = system: 786-0
HCT-15 = system: HCT-15
HT-29 = system: HT-29
IGROV-1 = system: IGROV-1
LOX IMVI = system: LOX IMVI
M14 = system: M14
MDA-MB-435 = system: MDA-MB-435
MOLT-4 = system: MOLT-4
Malme-3M = system: Malme-3M
OVCAR-3 = system: OVCAR-3
OVCAR-5 = system: OVCAR-5
OVCAR-8 = system: OVCAR-8
SF-268 = system: SF-268
SF-539 = system: SF-539
SN12C = system: SN12C
SNB-75 = system: SNB-75
T47D = system: T47D
TK-10 = system: TK-10
HCC 2998 = system: HCC 2998
A498 = system: A498

SMILES | GI50 (786-0) | GI50 (HCT-15) | GI50 (HT-29) | GI50 (IGROV-1) | GI50 (LOX IMVI) | GI50 (M14) | GI50 (MDA-MB-435) | GI50 (MOLT-4) | GI50 (Malme-3M) | GI50 (OVCAR-3) | GI50 (OVCAR-5) | GI50 (OVCAR-8) | GI50 (SF-268) | GI50 (SF-539) | GI50 (SN12C) | GI50 (SNB-75) | GI50 (T47D) | GI50 (TK-10) | GI50 (HCC 2998) | GI50 (A498)
O=C(Cc1ccc([N+](=O)[O-])cc1)OCC#CCOC(=O)Cc1ccc([N+](=O)[O-])cc1 | > 10 µM (inactive) | > 10 µM | > 10 µM (inactive) | > 10 µM (inactive) | > 10 µM (inactive) | > 10 µM (inactive) | > 10 µM (inactive) | > 10 µM (inactive) | > 10 µM (inactive) | > 10 µM (inactive) | > 10 µM (inactive) | > 10 µM (inactive) | > 10 µM (inactive) | > 10 µM (inactive) | > 10 µM (inactive) | > 10 µM (inactive) | > 10 µM (inactive) | > 10 µM (inactive) | – | –
CCn1cc(C(=O)O)c(=O)c2ccc(C)nc21 [NALIDIXIC ACID] | > 100 µM (inactive) | > 100 µM | > 100 µM (inactive) | > 100 µM (inactive) | > 100 µM (inactive) | > 100 µM (inactive) | > 100 µM (inactive) | > 100 µM (inactive) | > 100 µM (inactive) | > 100 µM (inactive) | > 100 µM (inactive) | > 100 µM (inactive) | > 100 µM (inactive) | > 100 µM (inactive) | > 100 µM (inactive) | 97.3 µM (inactive) | > 100 µM (inactive) | > 100 µM (inactive) | > 100 µM (inactive) | –
O=C(c1ccccc1)C1(Br)S(=O)(=O)OCCOS1(=O)=O | > 100 µM (inactive) | > 100 µM | > 100 µM (inactive) | > 100 µM (inactive) | > 100 µM (inactive) | > 100 µM (inactive) | – | > 100 µM (inactive) | > 100 µM (inactive) | > 100 µM (inactive) | > 100 µM (inactive) | > 100 µM (inactive) | > 100 µM (inactive) | > 100 µM (inactive) | > 100 µM (inactive) | > 100 µM (inactive) | – | > 100 µM (inactive) | > 100 µM (inactive) | > 100 µM (inactive)
O=[N+]([O-])c1ccc2c(c1)nc1n2C(c2c(F)cccc2F)SC1 (configuration not stated) | > 91.6 µM (inactive) | > 100 µM | > 100 µM (inactive) | > 100 µM (inactive) | > 100 µM (inactive) | > 100 µM (inactive) | > 100 µM (inactive) | > 100 µM (inactive) | > 100 µM (inactive) | > 100 µM (inactive) | > 100 µM (inactive) | > 100 µM (inactive) | > 100 µM (inactive) | > 100 µM (inactive) | > 100 µM (inactive) | 84.7 µM (inactive) | > 100 µM (inactive) | > 100 µM (inactive) | > 100 µM (inactive) | –
COc1cc2oc(-c3ccc(O)cc3)cc(=O)c2c(OC)c1O | 36 µM (inactive) | 92.7 µM | > 100 µM (inactive) | 57.3 µM (inactive) | 60.5 µM (inactive) | > 100 µM (inactive) | > 100 µM (inactive) | > 100 µM (inactive) | > 100 µM (inactive) | 80.9 µM (inactive) | > 100 µM (inactive) | 49.7 µM (inactive) | 37.8 µM (inactive) | > 100 µM (inactive) | 68.7 µM (inactive) | 14.5 µM (inactive) | 6.41 µM (inactive) | 51.4 µM (inactive) | 96.8 µM (inactive) | –
C[C@@]1(O)CC[C@]2(C)C3CCCC3[C@H]12 (some centres not stated) | > 100 µM (inactive) | > 100 µM | > 100 µM (inactive) | > 100 µM (inactive) | > 100 µM (inactive) | > 100 µM (inactive) | – | > 100 µM (inactive) | > 100 µM (inactive) | > 100 µM (inactive) | > 100 µM (inactive) | > 100 µM (inactive) | > 100 µM (inactive) | > 100 µM (inactive) | > 100 µM (inactive) | > 100 µM (inactive) | – | > 100 µM (inactive) | > 100 µM (inactive) | > 100 µM (inactive)
O=C1CCCc2cc3c(cc21)CCC3C(=O)O (configuration not stated) | > 100 µM (inactive) | > 100 µM | > 100 µM (inactive) | > 100 µM (inactive) | > 100 µM (inactive) | > 100 µM (inactive) | – | > 100 µM (inactive) | > 100 µM (inactive) | – | > 100 µM (inactive) | > 100 µM (inactive) | > 100 µM (inactive) | > 100 µM (inactive) | > 100 µM (inactive) | > 100 µM (inactive) | > 100 µM (inactive) | > 100 µM (inactive) | > 100 µM (inactive) | –
CC1=C(C(=O)CC(=O)C(=O)Nc2ccccc2C)Sc2ccccc2N1 | > 45.5 µM (inactive) | > 100 µM | > 100 µM (inactive) | > 100 µM (inactive) | > 42.4 µM (inactive) | > 100 µM (inactive) | – | > 100 µM (inactive) | > 100 µM (inactive) | > 100 µM (inactive) | > 100 µM (inactive) | > 100 µM (inactive) | > 67 µM (inactive) | > 93.3 µM (inactive) | > 100 µM (inactive) | > 53.8 µM (inactive) | – | > 100 µM (inactive) | > 74.3 µM (inactive) | > 100 µM (inactive)
Cc1ccc(S(=O)(=O)Nn2c(O)c(C#N)c(-c3ccc(N(C)C)cc3)c(C#N)c2=O)cc1 | > 50 µM (inactive) | > 50 µM | > 50 µM (inactive) | > 50 µM (inactive) | > 50 µM (inactive) | – | > 50 µM (inactive) | > 50 µM (inactive) | > 50 µM (inactive) | – | 21.8 µM (inactive) | > 50 µM (inactive) | > 50 µM (inactive) | > 50 µM (inactive) | > 50 µM (inactive) | > 50 µM (inactive) | – | > 50 µM (inactive) | > 50 µM (inactive) | > 50 µM (inactive)
Cc1ccc(/N=C2/S/C(=C3/CCC=C3N3CCOCC3)N(c3ccc(Cl)cc3)/C2=N/c2ccc(C)cc2)cc1 | > 100 µM (inactive) | > 100 µM | > 100 µM (inactive) | > 100 µM (inactive) | – | > 100 µM (inactive) | – | > 100 µM (inactive) | > 100 µM (inactive) | – | > 100 µM (inactive) | > 100 µM (inactive) | – | – | > 100 µM (inactive) | > 100 µM (inactive) | > 100 µM (inactive) | > 100 µM (inactive) | > 100 µM (inactive) | > 100 µM (inactive)
CC1CC(C#N)=C2NCCCCN2C1=O (configuration not stated) | > 100 µM (inactive) | > 100 µM | > 100 µM (inactive) | > 100 µM (inactive) | > 100 µM (inactive) | > 100 µM (inactive) | > 100 µM (inactive) | > 100 µM (inactive) | > 100 µM (inactive) | > 100 µM (inactive) | – | > 100 µM (inactive) | > 100 µM (inactive) | > 100 µM (inactive) | > 100 µM (inactive) | > 100 µM (inactive) | > 100 µM (inactive) | > 100 µM (inactive) | > 100 µM (inactive) | –
CC(=O)OC1OC2C(NC(=O)OC(C)(C)C)C1CC2(OCc1ccccc1)OCc1ccccc1 (configuration not stated) | 23.3 µM (inactive) | 32.3 µM | 33.7 µM (inactive) | 27 µM (inactive) | > 10 µM (inactive) | 20.5 µM (inactive) | – | 9.71 µM (inactive) | 14.4 µM (inactive) | 16.5 µM (inactive) | 28.3 µM (inactive) | 53.8 µM (inactive) | 35.7 µM (inactive) | 18.1 µM (inactive) | 27.2 µM (inactive) | 36.2 µM (inactive) | – | 17 µM (inactive) | 21.6 µM (inactive) | 19.4 µM (inactive)
CN(c1ccccc1Cl)S(=O)(=O)c1ccc([N+](=O)[O-])cc1 | > 100 µM (inactive) | > 100 µM | > 100 µM (inactive) | > 100 µM (inactive) | > 100 µM (inactive) | > 100 µM (inactive) | > 100 µM (inactive) | > 100 µM (inactive) | > 100 µM (inactive) | > 100 µM (inactive) | > 100 µM (inactive) | > 100 µM (inactive) | > 100 µM (inactive) | > 100 µM (inactive) | > 100 µM (inactive) | > 100 µM (inactive) | > 100 µM (inactive) | > 100 µM (inactive) | > 100 µM (inactive) | –
CC[C@]1(Cc2ccc(OC)c(OC)c2)[C@@H]2C[C@@H](C(=O)OC)ON2O[C@H](OC2CCCC2(c2ccccc2)c2ccccc2)[C@@H]1OC(C)=O (some centres not stated) | > 100 µM (inactive) | > 100 µM | > 100 µM (inactive) | > 100 µM (inactive) | > 100 µM (inactive) | > 100 µM (inactive) | > 100 µM (inactive) | > 100 µM (inactive) | – | > 100 µM (inactive) | > 100 µM (inactive) | > 100 µM (inactive) | > 100 µM (inactive) | – | > 100 µM (inactive) | > 100 µM (inactive) | > 100 µM (inactive) | > 100 µM (inactive) | – | –
O=C(NC1C2CC3CC(C2)CC1C3)/C(Cl)=C1/Sc2ccccc2NC1=O (configuration not stated) | > 100 µM (inactive) | > 78.9 µM | > 100 µM (inactive) | > 100 µM (inactive) | 99.3 µM (inactive) | > 100 µM (inactive) | – | 16.7 µM (inactive) | > 100 µM (inactive) | > 100 µM (inactive) | > 100 µM (inactive) | > 100 µM (inactive) | > 100 µM (inactive) | > 100 µM (inactive) | > 100 µM (inactive) | 97.9 µM (inactive) | – | > 64.6 µM (inactive) | > 80 µM (inactive) | > 100 µM (inactive)
